# According to patent publication US20230365533A1, “BICYCLOHEPTANE PYRROLIDINE OREXIN RECEPTOR AGONISTS” (MERCK SHARP & DOHME CORP., priority 2021, published 2023):
# Molecular target: T1, human OX2R (Homo sapiens, UniProt O43614)
# T1 construct: expressed in transfected cells; host or cells: CHO (Chinese hamster ovary) cells, grown under G418 selection
# T1 sequence (O43614 1-444): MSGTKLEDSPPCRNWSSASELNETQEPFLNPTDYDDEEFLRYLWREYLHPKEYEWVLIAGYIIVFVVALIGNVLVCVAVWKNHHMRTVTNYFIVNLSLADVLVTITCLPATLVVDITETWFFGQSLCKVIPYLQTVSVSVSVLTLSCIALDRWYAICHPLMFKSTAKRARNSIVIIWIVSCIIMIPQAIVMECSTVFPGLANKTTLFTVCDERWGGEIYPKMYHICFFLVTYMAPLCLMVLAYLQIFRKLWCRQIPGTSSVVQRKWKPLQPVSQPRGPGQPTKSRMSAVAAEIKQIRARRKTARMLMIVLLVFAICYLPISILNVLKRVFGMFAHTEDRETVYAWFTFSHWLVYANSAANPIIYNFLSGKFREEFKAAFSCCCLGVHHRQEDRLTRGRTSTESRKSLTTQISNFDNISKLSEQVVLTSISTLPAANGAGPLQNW
# Assay: IPOne (IP-1) orexin receptor agonist assay in CHO cells expressing human OX2R
# Type: cell-based
# Settings: IPOne assay, CHO cells expressing human OX2R, 2 hours incubation; read-out: hoX2R_IP IC50
# From the text: The utility of the compounds in accordance with the present invention as orexin receptor OX1R and/or OX2R agonists may be readily determined without undue experimentation by methodology well known in the art. Both the OX1R and/or OX2R G-coupled protein receptors (GPCRs) couple through the Gaq signaling pathway, which ultimately promotes calcium mobilization via inositol triphosphate (IP3) production. The half-life of IP-3 is relatively short, being rapidly metabolized to inositol monophosphate (IP-1), which can be readily detected using a commercially available assay kit (IP-One; Cisbio; cat #621PAPEC) coupled with a cell line expressing the target receptor(s) of interest. The utility of the compounds in accordance with the present invention as orexin receptor OX1R and/or OX2R agonists may be determined utilizing this assay.
# In a typical experiment, the OX1 and OX2 receptor agonist activity is determined in accordance with the following general experimental method. Chinese hamster ovary (CHO) cells expressing human OX1R and/or the human OX2R were grown in Iscove's modified DMEM containing glutaMAX™, 1% G418, 100 U/mL penicillin, 100 μg/mL streptomycin and 10% heat-inactivated qualified fetal bovine serum (FBS). The OX2R cells were seeded at 10,000 cells/well/50 μL and the OX1R cells were seeded at 20,000 cells/well/50 μL into 384-well white tissue culture plates (Greiner; cat #781080). All cell/media reagents were from GIBCO-Invitrogen Corp. The seeded cell plate(s) were incubated at 37° C. with 5% CO2 and 85% humidity for 20-24 hours. On the day of the assay, assay-ready compound plates were prepared using an acoustic liquid handler (ECHO; Labcyte), which dispensed sufficient volume of test compound stock (10 mM in DMSO) or 100% DMSO to prepare 10 point, ½-log dilutions in a final volume of 202.5 nL/well in all test wells of a 384-well diamond plate (Labcyte). Following completion of assay-ready plates, importantly, the next three steps were performed with minimal delay: 1) 20 μl of 1×stimulation buffer was added to the compound plate using a Multidrop Combi (small cassette, Thermo Fisher Scientific cat #24073290); 2) culture medium was removed from the cell plate using the Bluewasher plate washer (gentle spin; BlueCatBio); 3) 14 μl of compound/stimulation buffer mixture was added to the cell plate using a Bravo liquid handler (Agilent) prior to incubating cell plates at 37° C. with 5% CO2 and 85% humidity for 1 or 2 hours (OX1R and OX2R, respectively). During this incubation, IP-one detection reagents were prepared (38:1:1 lysis buffer:D2:AB-cryptate reagents). Six μL of mixed detection reagents were added to the cell plate using a Multidrop Combi (small cassette, Thermo Fisher Scientific cat #24073290) and incubated 60 minutes at room temperature in the dark. Fluorescence signal was detected using an Envision plate reader (Perkin Elmer) [LANCE/DELFIA Dual Enh (Em: APC 665; Ex: Cy5 620)].
# For each compound, data were fit to a four parameter logistic fit (ActivityBase software) and the EC50 was reported as the inflection point of the resulting curve. Percent effect for each test compound was determined as the percentage of sample raw value/mean max effect, where the mean max effect was derived from the mean raw value of 32 control wells per assay plate (using Orexin A (cat #003-30) at 1 μM for human OX1R and a reference compound at 1 uM with 100% activity previously established by comparison to Orexin A for human OX2R). The intrinsic orexin receptor agonist activity of a compound which may be used in the present invention may be determined by these assays.
row,Structure (SMILES),IC50 [nM]
1,"COC(=O)N1[C@H](C)C[C@H](NS(C)(=O)=O)[C@@H]1COC1CCC2(c3ncc(OC(F)F)c(C)n3)CC2C1 (stereo partly drawn) [Example 75, methyl (2R,3S,5R)-2-(((6-(5-(difluoromethoxy)-4-methylpyrimidin-2-yl)bicyclo[4.1.0]heptan-3-yl)oxy)methyl)-5-methyl-3-(methylsulfonamido)pyrrolidine-1-carboxylate]",257
2,"COC(=O)N1[C@@H]2CCC[C@@H]2[C@H](NS(=O)(=O)CF)[C@@H]1COC1CCC2(c3ncc(F)cn3)CC2C1 (stereo partly drawn) [Example 130, methyl (2R,3S,3aS,6aR)-3-((fluoromethyl)sulfonamido)-2-(((6-(5-fluoropyrimidin-2-yl)bicyclo[4.1.0]heptan-3-yl)oxy)methyl)hexahydrocyclopenta[b]pyrrole-1(2H)-carboxylate]",1.4
3,"COC(=O)N1[C@H](C)C[C@H](NS(C)(=O)=O)[C@@H]1COC1CCC2(c3ncc(Cl)cn3)CC2C1 (stereo partly drawn) [Example 140, methyl (2R,3S,5R)-2-(((6-(5-chloropyrimidin-2-yl)bicyclo[4.1.0]heptan-3-yl)oxy)methyl)-5-methyl-3-(methylsulfonamido)pyrrolidine-1-carboxylate]",11.1
4,"COC(=O)N1[C@H](C)C[C@H](NS(=O)(=O)N(C)C)[C@@H]1COC1CCC2(c3cnccn3)CC2C1 (single isomer, unassigned) [Example 14]",161
5,"COC[C@@H]1C[C@H](NS(C)(=O)=O)[C@H](CO[C@H]2CC[C@@]3(c4ncc(F)cn4)C[C@H]3C2)N1C(=O)OC [Example 132, methyl (2R,3S,5S)-2-((((1S,3S,6R)-6-(5-fluoropyrimidin-2-yl)bicyclo[4.1.0]heptan-3-yl)oxy)methyl)-5-(methoxymethyl)-3-(methylsulfonamido)pyrrolidine-1-carboxylate]",9.7
6,"COC(=O)N1[C@@H]2CCC[C@@H]2[C@H](NS(C)(=O)=O)[C@@H]1COC1CCC2(c3ncccn3)CC2C1 (stereo partly drawn) [Example 175, methyl (2R,3S,3aS,6aR)-3-(methylsulfonamido)-2-(((6-(pyrimidin-2-yl)bicyclo[4.1.0]heptan-3-yl)oxy)methyl)hexahydrocyclopenta[b]pyrrole-1(2H)-carboxylate]",22.6
7,"CC(C)OC(=O)N1CCC[C@H](NS(=O)(=O)C(F)(F)F)[C@@H]1COC1CC[C@@]2(c3ncc(F)cn3)CC2C1 (stereo partly drawn) [Example 123, isopropyl (2R,3S)-2-(((6-(5-fluoropyrimidin-2-yl)bicyclo[4.1.0]heptan-3-yl)oxy)methyl)-3-((trifluoromethyl)sulfonamido)piperidine-1-carboxylate]",4.1
8,"C[C@@H]1C[C@H](NS(C)(=O)=O)[C@H](CO[C@H]2CC[C@@]3(c4ncc(F)cn4)C[C@H]3C2)N1C(=O)OCC1(C)CC1(F)F (stereo partly drawn) [Example 57, (2,2-difluoro-1-methylcyclopropyl)methyl (2R,3S,5R)-2-((((1S,3S,6R)-6-(5-fluoropyrimidin-2-yl)bicyclo[4.1.0]heptan-3-yl)oxy)methyl)-5-methyl-3-(methylsulfonamido)pyrrolidine-1-carboxylate]",1.4
9,"C[C@@H]1C[C@H](NS(C)(=O)=O)[C@H](CO[C@H]2CC[C@@]3(c4ncc(F)cn4)C[C@H]3C2)N1C(=O)O[C@H]1COC[C@@H]1F [Example 56, (3S,4S)-4-fluorotetrahydrofuran-3-yl (2R,3S,5R)-2-((((1S,3S,6R)-6-(5-fluoropyrimidin-2-yl)bicyclo[4.1.0]heptan-3-yl)oxy)methyl)-5-methyl-3-(methylsulfonamido)pyrrolidine-1-carboxylate]",9.2
10,"COC(=O)N1[C@H](C)C[C@H](NS(=O)(=O)N(C)C)[C@@H]1COC1CCC2(c3ccccn3)CC2C1 (stereo partly drawn) [Example 9, methyl (2R,3S,5R)-3-((N,N-dimethylsulfamoyl)amino)-5-methyl-2-(((6-(pyridin-2-yl)bicyclo[4.1.0]heptan-3-yl)oxy)methyl)pyrrolidine-1-carboxylate]",28.8
11,"C[C@@H]1C[C@H](NS(C)(=O)=O)[C@H](CO[C@H]2CC[C@@]3(c4ncc(F)cn4)C[C@H]3C2)N1C(=O)OC[C@H]1[C@H](C)C1(F)F [Example 55, ((1R,3S)-2,2-difluoro-3-methylcyclopropyl)methyl (2R,3S,5R)-2-((((1S,3S,6R)-6-(5-fluoropyrimidin-2-yl)bicyclo[4.1.0]heptan-3-yl)oxy)methyl)-5-methyl-3-(methylsulfonamido)pyrrolidine-1-carboxylate]",1
12,"COC(=O)N1[C@H](C)C[C@H](NS(C)(=O)=O)[C@@H]1CO[C@H]1CC[C@@]2(c3ncc(Cl)cn3)C[C@H]2C1 (single isomer, unassigned) [Example 142]",2.8
13,"COC(=O)N1[C@H](C)C[C@H](NS(C)(=O)=O)[C@@H]1COC1CCC2(c3ncc(F)c(OC)n3)CC2C1 (stereo partly drawn) [Example 76, methyl (2R,3S,5R)-2-(((6-(5-fluoro-4-methoxypyrimidin-2-yl)bicyclo[4.1.0]heptan-3-yl)oxy)methyl)-5-methyl-3-(methylsulfonamido)pyrrolidine-1-carboxylate]",51.2
14,"COC(=O)N1[C@H](C)C[C@H](NS(=O)(=O)C(F)(F)F)[C@@H]1CO[C@@H]1CC[C@]2(c3ncc(F)cn3)C[C@@H]2C1 [Example 44, methyl (2R,3S,5R)-2-((((1R,3R,6S)-6-(5-fluoropyrimidin-2-yl)bicyclo[4.1.0]heptan-3-yl)oxy)methyl)-5-methyl-3-((trifluoromethyl)sulfonamido)pyrrolidine-1-carboxylate]",17.4
15,"CC(C)OC(=O)N1[C@H](C)C[C@H](NS(=O)(=O)C(F)F)[C@@H]1COC1CCC2(c3ncc(Cl)cn3)CC2C1 (stereo partly drawn) [Example 82, isopropyl (2R,3S,5R)-2-(((6-(5-chloropyrimidin-2-yl)bicyclo[4.1.0]heptan-3-yl)oxy)methyl)-3-((difluoromethyl)sulfonamido)-5-methylpyrrolidine-1-carboxylate]",10.8
16,"CC(C)OC(=O)N1[C@H](C)C[C@H](NS(=O)(=O)CF)[C@@H]1COC1CCC2(c3ncc(Br)cn3)CC2C1 (stereo partly drawn) [Example 108, isopropyl (2R,3S,5R)-2-(((6-(5-bromopyrimidin-2-yl)bicyclo[4.1.0]heptan-3-yl)oxy)methyl)-3-((fluoromethyl)sulfonamido)-5-methylpyrrolidine-1-carboxylate]",7.4
17,"C[C@@H]1C[C@H](NS(C)(=O)=O)[C@H](CO[C@H]2CC[C@@]3(c4ncc(F)cn4)C[C@H]3C2)N1C(=O)OCC1(F)CCC1 [Example 53, (1-fluorocyclobutyl)methyl (2R,3S,5R)-2-((((1S,3S,6R)-6-(5-fluoropyrimidin-2-yl)bicyclo[4.1.0]heptan-3-yl)oxy)methyl)-5-methyl-3-(methylsulfonamido)pyrrolidine-1-carboxylate]",6.1
18,"C[C@@H]1C[C@H](NS(C)(=O)=O)[C@H](CO[C@H]2CC[C@@]3(c4ncc(F)cn4)C[C@H]3C2)N1C(=O)OC[C@H]1C[C@H]1F [Example 51, ((1R,2R)-2-fluorocyclopropyl)methyl (2R,3S,5R)-2-((((1S,3S,6R)-6-(5-fluoropyrimidin-2-yl)bicyclo[4.1.0]heptan-3-yl)oxy)methyl)-5-methyl-3-(methylsulfonamido)pyrrolidine-1-carboxylate]",1.3
